Laboratory results as given in patent publication US20020137733A1, “Macrocyclic anti-viral compounds” (priority 2000, published 2002).
≈ marks a conversion by molar mass, not a printed value. Like-named read-outs stand apart in the source and are kept apart here.

Key:
[1] = system: HSV-2 G; experiment: Anti-HSV CPE assay, HSV-2 G; assay type: cell-based, herpes simplex virus type 2
Experimental: (§1) Human embryonic lung fibroblast (HEL) cells and Vero cells were propagated in minimal essential medium (MEM) supplemented with 10% fetal calf serum, L-glutamine, and bicarbonate. A CPE assay was used, confluent cultures of HEL or Vero cells grown in 96-well microtiter plates were inoculated with 100 times the 50% cell culture infective dose of the different HSV strains (HSV-1 KOS; HSV-1 Tk−, which is deficient for thymidine kinase; and HSV-2 G). Compounds were added after a 2 hours virus adsorption period. After 2 to 3 days incubation at 37 C. in 5% CO2 atmosphere, cells were fixed with ethanol and stained with 2.5% Giemsa solution. Virus-induced cytopathic effect (CPE) was then recorded microscopically. […] IC50 values were estimated from graphic plots of the number of plaques (percentage of control) or percentage of cytopathocity as a function of the concentration of the test compounds. Control compounds ganciclovir (GCV) and cidofovir ([(S)-1-(3-hydroxy-2-phosphonylmethoxypropyl)cytosine], HPMPC) were run in parallel.

[2] = system: Vero cells; experiment: Cytotoxicity, alteration of cell morphology (MTC), Vero cells; assay type: cell-based; settings: Table 1
Excerpt: (§2) Method 10. Cytotoxicity Measurements Based on Alteration of Cell Morphology
(§3) Minimum toxic concentration which is expressed as MTC, is the minimum concentration of compound required to cause microscopically detectable alteration in normal cell morphology.
(§4) MTC: Minimal toxic concentration or minimal concentration required to alter normal cell morphology (Visual examination)

[3] = system: VZV OKA strain; experiment: microbe, parasite or virus in culture; assay type: cell-based, varicella zoster virus; settings: Human alphaherpesvirus 3, HEL, read-out: ANTI-VZV ACTIVITY EC50 Plaque assay VZV Tk+ OKA strain
Experimental: (§5) Human embryonic lung fibroblast (HEL) cells were grown in 96-well plates at the confluent stage and then were infected with reference strains VZV expressing viral thymidine kinase (YS and Oka) or lacking the viral thymidine kinase (07-1 and YS-R) at 20 plaque-forming units (PFU) for plaque assay. After a 2 hours incubation, residual virus was removed and the infected cells were further incubated with Eagle's MEM culture medium supplemented with 2% inactivated FCS (fetal calf serum), 1% L-glutamine and 0.3% sodium bicarbonate containing dilution of the test compounds (in duplicate) After 5 days incubation at 37 C. in 5% CO2 atmosphere, cells were fixed with ethanol and stained with 2.5% Giemsa solution. Virus plaque formation was monitored microscopically. […] IC50 values were estimated from graphic plots of the number of plaques (percentage of control) as a function of the concentration of the test compounds.

[4] = system: VZV YS/R strain; experiment: microbe, parasite or virus in culture; assay type: cell-based, varicella zoster virus; settings: Human alphaherpesvirus 3, HEL, read-out: ANTI-VZV ACTIVITY EC50 Plaque assay VZV Tk− YS/R strain
Experimental: as §5

[5] = system: VZV 07/1 strain; experiment: microbe, parasite or virus in culture; assay type: cell-based, varicella zoster virus; settings: Human alphaherpesvirus 3, HEL, read-out: ANTI-VZV ACTIVITY EC50 Plaque assay VZV Tk− 07/1 strain
Experimental: as §5

[6] = system: VZV YS strain; experiment: Anti-VZV plaque assay, YS strain (Tk+); assay type: cell-based, varicella zoster virus; settings: read-out: ANTI-VZV ACTIVITY EC50 Plaque assay VZV Tk+ YS strain
Experimental: as §5

[7] = system: EBV; experiment: Anti-EBV assay, EBV-specific DNA/DNA hybridization in P3HR-1 cells; assay type: cell-based, Epstein-Barr virus; settings: read-out: ANTI-EBV ACTIVITY EC50 DNA hybridiation assay
Experimental: To determine the effects of the compounds on EBV replication, exponentially growing P3HR-1 cells were treated for 14 days with various concentrations of the compounds. The cells were then harvested, and the genome copy numbers were determined using EBV-specific DNA/DNA hybridization technique. […] Control compound cidofovir ([(S)-1-(3-hydroxy-2-phosphonylmethoxypropyl)cytosine], HPMPC) was run in parallel.

[8] = system: HSV-1 KOS; experiment: Anti-HSV CPE assay, HSV-1 KOS; assay type: cell-based, herpes simplex virus type 1
Experimental: as §1

[9] = system: HCMV Davis; experiment: Anti-HCMV plaque assay; assay type: cell-based, cytomegalovirus; settings: for EC50: Human betaherpesvirus 5, HEL
Experimental: (§6) Method 4. Anti-HCMV Assay
(§7) Human embryonic lung fibroblast cells (HEL) were grown in 96-well plates at the confluent stage and then were infected with reference strains of HCMV Davis at 8, 20, 38 plaque-forming units (PFU)/well for plaque assay or at 100 PFU/well for cytopathic effect (CPE) assay. After a 2 hours incubation, residual virus was removed and the infected cells were further incubated with Eagle's MEM culture medium supplemented with 2% inactivated FCS (fetal calf serum), 1% L-glutamine and 0.3% sodium bicarbonate containing dilution of the test compounds (in duplicate). After 7 days incubation at 37 C. in 5% CO2 atmosphere, cells were fixed with ethanol and stained with 2.5% Giemsa solution. Virus plaque formation or viral cytopathic effect were monitored microscopically. […] IC50 values were estimated from graphic plots of the number of plaques (percentage of control) or percentage of cytopathocity as a function of the concentration of the test compounds. Control compounds ganciclovir (GCV) and cidofovir ([(S)-1-(3-hydroxy-2-phosphonylmethoxypropyl)cytosine], HPMPC) were run in parallel.

[10] = system: HEL cells; experiment: Cytotoxicity, alteration of cell morphology (MTC), HEL cells; settings: for CYTOTOXICITY MTC HEL: Table 1 (anti-HSV study)
Excerpt: as §2, §3, §4

[11] = system: HSV-1 Tk−; experiment: Anti-HSV CPE assay, HSV-1 Tk- (thymidine kinase deficient); assay type: cell-based, herpes simplex virus type 1
Experimental: as §1

[12] = Cytotoxicity, inhibition of cell growth (CC50), HEL cells; assay type: cell-based; settings: human, Coulter counter
Experimental: (§8) Method 9. Cytotoxicity Measurements Based on the Inhibition of Cell Growth
(§9) Cells were seeded at a rate of 5×10^3 cells/well in 96-well plates and allowed to proliferate 24 hours. Different concentrations of the test compounds were then added (in duplicates), and after 3 days of incubation at 37 C. in 5% CO2 atmosphere, the cell number was determined with a coulter counter.

[13] = Cytotoxicity, inhibition of cell growth (CC50), P3HR cells; assay type: cell-based; settings: human, Coulter counter
Experimental: as §8, §9

[14] = in vitro; assay type: cell-based; settings: human
Excerpt: Method 11. Cytotoxicity Measurements Based on Reduction of Total Cellular DNA Content Expressed as CC50*

[15] = system: HCMV Davis; experiment: Anti-HCMV CPE assay; assay type: cell-based, cytomegalovirus; settings: HEL cells, 100 PFU/well; for EC50: Human betaherpesvirus 5, HEL, read-out: ANTI-HCMV ACTIVITY EC50 HCMV-Davis CPE 100/well (96 well)
Experimental: as §6, §7

[16] = Human alphaherpesvirus 1, HEL, read-out: ANTI-HSV ACTIVITY EC50 CPE assay HSV-1Tk- HEL, HEL cells
[17] = Human alphaherpesvirus 1, Vero, read-out: ANTI-HSV ACTIVITY EC50 CPE assay HSV-1Tk- Vero, Vero cells
[18] = Human alphaherpesvirus 2, Vero, Vero cells, read-out: ANTI-HSV ACTIVITY EC50 CPE assay HSV-2-G Vero
[19] = Human alphaherpesvirus 1, Vero cells, read-out: ANTI-HSV ACTIVITY EC50 CPE assay HSV-1-KOS Vero
[20] = Human alphaherpesvirus 1, HEL cells, read-out: ANTI-HSV ACTIVITY EC50 CPE assay HSV-1-KOS HEL
[21] = HEL cells, 8 PFU/well, read-out: ANTI-HCMV ACTIVITY EC50 HCMV-Davis Plaque assay 8/well
[22] = HEL cells, 38 PFU/well, read-out: ANTI-HCMV ACTIVITY EC50 HCMV-Davis Plaque assay 38/well

| Structure (SMILES) | CYTOTOXICITY MTC Vero [2] [µg/mL] | EC50 [3] [µg/mL] | EC50 [4] [µg/mL] | EC50 [5] [µg/mL] | EC50 ([6]; Human alphaherpesvirus 3, HEL) [µg/mL] | CYTOTOXICITY MTC HEL [10] [µg/mL] | CYTOTOXICITY HEL cells MTC ([10]; Table 3 (anti-VZV study)) [µg/mL] | EC50 [11, 16] [µg/mL] | EC50 [11, 17] [µg/mL] | CC50 at 3 days [12] [µg/mL] | CC50 at 3 days [13] [µg/mL] | CC50 [14] [µg/mL] | EC50 [1, 18] [µg/mL] | EC50 [8, 19] [µg/mL] | EC50 [8, 20] [µg/mL] | EC50 [15] [µg/mL] | EC50 [9, 21] [µg/mL] | EC50 [9, 22] [µg/mL] | CYTOTOXICITY HEL cells MTC ([10]; Table 4 (anti-HCMV study)) [ug/m/] | other results |
| --- | --- | --- | --- | --- | --- | --- | --- | --- | --- | --- | --- | --- | --- | --- | --- | --- | --- | --- | --- | --- |
| O=C1NCc2ccccc2OCC/C=C/c2cncc3ccc1nc23 [Compound #1] | 25 | 0.06 (≈ 0.181 µM) | 0.05 (≈ 0.151 µM) | 0.06 (≈ 0.181 µM) | 0.05 (≈ 0.151 µM) | 6 | >2 | 0.062 (≈ 0.187 µM) | 1.1 (≈ 3.32 µM) | 0.1 (≈ 0.302 µM) | 0.7 (≈ 2.11 µM) | 2.6 (≈ 7.85 µM) |  |  |  |  |  |  |  | EC50 ([1]; Human alphaherpesvirus 2, HEL, read-out: ANTI-HSV ACTIVITY EC50 CPE assay HSV-2-G HEL): 0.138 µg/mL (≈ 0.416 µM); EC50 ([1]; Human alphaherpesvirus 2, Vero, read-out: ANTI-HSV ACTIVITY EC50 CPE assay HSV-2-G Vero): 0.009 µg/mL (≈ 0.0272 µM); EC50 ([7]; human gammaherpesvirus 4, P3HR-1, 336 h): < 0.2 µg/mL; EC50 ([8]; Human alphaherpesvirus 1, HEL, read-out: ANTI-HSV ACTIVITY EC50 CPE assay HSV-1-KOS HEL): 0.098 µg/mL (≈ 0.296 µM); EC50 ([8]; Human alphaherpesvirus 1, Vero, read-out: ANTI-HSV ACTIVITY EC50 CPE assay HSV-1-KOS Vero): 0.52 µg/mL (≈ 1.57 µM); EC50 ([9]; read-out: ANTI-HCMV ACTIVITY EC50 HCMV-Davis Plaque assay 8/well): < 0.0015 µg/mL; EC50 ([9]; read-out: ANTI-HCMV ACTIVITY EC50 HCMV-Davis Plaque assay 20/well): < 0.0015 µg/mL; EC50 ([9]; read-out: ANTI-HCMV ACTIVITY EC50 HCMV-Davis Plaque assay 38/well): 0.003 µg/mL (≈ 0.00905 µM) |
| O=c1[nH]c(=O)n([C@H]2C[C@H](O)[C@@H](CO)O2)cc1/C=C/Br [BVDU, (E)-5-(2-bromovinyl)-2′-deoxyuridine] |  | 0.0013 (≈ 0.0039 µM) | 39 (≈ 117 µM) | 4 (≈ 12 µM) | 0.0013 (≈ 0.0039 µM) |  | >50 |  |  |  |  |  |  |  |  |  |  |  |  |  |
| Nc1nc2c(ncn2COCCO)c(=O)[nH]1 [ACV, acyclovir] | >10 |  |  |  |  |  |  |  | 33 (≈ 147 µM) |  |  |  | 1.3 (≈ 5.77 µM) | 2.4 (≈ 10.7 µM) |  |  |  |  |  | EC50 ([6]; Human alphaherpesvirus 3, HEL cells, 20 PFU): 0.69 µg/mL (≈ 3.06 µM) |
| Nc1ccn(C[C@@H](CO)OCP(=O)(O)O)c(=O)n1 [HPMPC, (S)-1-(3-hydroxy-2-phosphonylmethoxypropyl)cytosine] | >100 |  |  |  |  | >100 |  | 0.012 (≈ 0.043 µM) | 2.4 (≈ 8.6 µM) | 11 (≈ 39.4 µM) | 30 (≈ 107 µM) | > 25 | 1.3 (≈ 4.66 µM) | 6.7 (≈ 24 µM) | 0.098 (≈ 0.351 µM) | 0.1 (≈ 0.358 µM) | 0.15 (≈ 0.537 µM) | 1.9 (≈ 6.81 µM) | >100 | EC50 ([1]; Human alphaherpesvirus 2, HEL, HEL cells, read-out: ANTI-HSV ACTIVITY EC50 CPE assay HSV-2-G HEL): 0.01 µg/mL (≈ 0.0358 µM); EC50 ([7]; human gammaherpesvirus 4, 336 h, P3HR-1 cells, treated 14 days): < 25 µg/mL; EC50 ([9]; HEL cells, 20 PFU/well, read-out: ANTI-HCMV ACTIVITY EC50 HCMV-Davis Plaque assay 20/well): 0.14 µg/mL (≈ 0.501 µM) |
| Nc1nc(O)c2ncn(COC(CO)CO)c2n1 [GCV, 9-[(1,3-dihyroxy-2-propoxy)methyl]guanine] | >100 |  |  |  |  | >100 |  | 12.5 (≈ 49 µM) | > 100 | 23 (≈ 90.1 µM) |  |  | 1.2 (≈ 4.7 µM) | 2.6 (≈ 10.2 µM) | 0.01 (≈ 0.0392 µM) | 0.98 (≈ 3.84 µM) | 0.94 (≈ 3.68 µM) | > 100 | >100 | ANTI-HCMV ACTIVITY EC50 HCMV-Davis CPE 100/well (96 well) [15]: 0.78 µg/mL; ANTI-HCMV ACTIVITY EC50 HCMV-Davis Plaque assay 8/well ([9]; HEL cells, 8 PFU/well): 0.86 µg/mL; ANTI-HSV ACTIVITY EC50 CPE assay HSV-1Tk- HEL ([11]; HEL cells): 17.4 µg/mL |
